Results published in patent publication US11213031B2, “Tetrazolylpropyl derivatives and their use as fungicides” (BAYER AKTIENGESELLSCHAFT, priority 2017, dated 2022).

Test: Log P by HPLC on reversed phase columns (EEC directive 79/831 Annex V.A8)
Type: physicochemical
Procedure: Measurement of Log P values was performed according to EEC directive 79/831 Annex V.A8 by HPLC (High Performance Liquid Chromatography) on reversed phase columns with the following methods: • ^[a]Log P value is determined by measurement of LC-UV, in an acidic range, with 0.1% formic acid in water and acetonitrile as eluent (linear gradient from 10% acetonitrile to 95% acetonitrile). • ^[b]Log P value is determined by measurement of LC-UV, in a neutral range, with 0.001 molar ammonium acetate solution in water and acetonitrile as eluent (linear gradient from 10% acetonitrile to 95% acetonitrile). • ^[c]Log P value is determined by measurement of LC-UV, in an acidic range, with 0.1% phosphoric acid and acetonitrile as eluent (linear gradient from 10% acetonitrile to 95% acetonitrile).
If more than one Log P value is available within the same method, all the values are given and separated by “+”.
Calibration was done with straight-chain alkan2-ones (with 3 to 16 carbon atoms) with known Log P values (measurement of Log P values using retention times with linear interpolation between successive alkanones). Lambda-max-values were determined using UV-spectra from 200 nm to 400 nm and the peak values of the chromatographic signals.

SMILES | LogP | chromatographic logP (method [a]: LC-UV, acidic range, 0.1% formic acid in water and acetonitrile as eluent)
CC=C(c1ccccc1F)C(O)(Cn1cnnn1)C1(Cl)CC1 (racemic) [Ia-en-04] | 2.66^[a] | 
CC=C(c1cccc(Cl)c1F)C(O)(Cn1cnnn1)C1(Cl)CC1 (racemic) [Ia-en-05] | 3.00^[a] | 
CC=C(c1cccc(F)c1F)C(O)(Cn1cnnn1)C1(Cl)CC1 (racemic) [Ia-en-06] | 2.82^[a] | 
CC=C(c1cccc(F)c1F)C(O)(Cn1cnnn1)C1(Cl)CC1 (racemic) [Ia-en-07] | 2.75^[a] | 
CC(c1cc(F)ccc1F)C(O)(Cn1cnnn1)C1(Cl)CC1 (single isomer, unassigned) [Ia-16] | 2.66^[a] | 
CC(c1cc(F)ccc1F)C(O)(Cn1cnnn1)C1(Cl)CC1 (single isomer, unassigned) [Ia-18] | 2.92^[a] | 
OC(Cc1ccccc1C(F)(F)F)(Cn1cnnn1)C1(Cl)CC1 (centres unmarked) [Ia-07] | 3.02^[a] | 
CC1(C(O)(Cc2ccccc2Cl)Cn2cnnn2)CC1 (centres unmarked) [Ia-08] | 2.80^[a] | 
CC1(C(O)(Cc2ccccc2Br)Cn2cnnn2)CC1 (centres unmarked) [Ia-09] | 2.92^[a] | 
CC1(C(O)(Cc2ccccc2)Cn2cnnn2)CC1 (centres unmarked) [Ia-10] | 2.35^[a] | 
CC1(C(O)(Cc2ccccc2C(F)(F)F)Cn2cnnn2)CC1 (centres unmarked) [Ia-11] | 2.94^[a] | 
Cc1ccccc1CC(O)(Cn1cnnn1)C1(C)CC1 (centres unmarked) [Ia-12] | 2.75^[a] | 
COc1ccccc1CC(O)(Cn1cnnn1)C1(Cl)CC1 (centres unmarked) [Ia-14] | 2.73^[a] | 
OC(Cc1cccc(Cl)c1Cl)(Cn1cnnn1)C1(Cl)CC1 (centres unmarked) [Ia-15] | 3.19^[a] | 
OC(Cc1ccccc1)(Cn1cnnn1)C1(F)CC1 (centres unmarked) [Ia-17] | 2.08^[a] | 
OC(Cc1ccccc1Cl)(Cn1cnnn1)C1(F)CC1 (centres unmarked) [Ia-19] | 2.40^[a] | 
OC(Cc1ccccc1Br)(Cn1cnnn1)C1(F)CC1 (centres unmarked) [Ia-21] | 2.49^[a] | 
OC(Cc1cccc(Br)c1)(Cn1cnnn1)C1(F)CC1 (centres unmarked) [Ia-23] | 2.59^[a] | 
OC(Cc1ccccc1Br)(Cn1cnnn1)C1(Cl)CC1 (centres unmarked) [Ia-24] | 2.88^[a] | 
CC(c1cccc(F)c1F)C(O)(Cn1cnnn1)C1(Cl)CC1 (centres unmarked) [Ia-25] | 2.96^[a] | 
COc1cccc(CC(O)(Cn2cnnn2)C2(F)CC2)c1 (centres unmarked) [Ia-26] | 2.11^[a] | 

SMILES | LogP | chromatographic logP (method [a]: LC-UV, acidic range, 0.1% formic acid in water and acetonitrile as eluent)
COc1ccc(CC(O)(Cn2cnnn2)C2(F)CC2)cc1 (centres unmarked) [Ia-27] | 2.08^[a] | 
Cc1cccc(CC(O)(Cn2cnnn2)C2(F)CC2)c1 (centres unmarked) [Ia-28] | 2.42^[a] | 
Cc1ccc(CC(O)(Cn2cnnn2)C2(C)CC2)cc1 (centres unmarked) [Ia-30] | 2.73^[a] | 
OC(Cc1cc(F)cc(F)c1)(Cn1cnnn1)C1(Cl)CC1 (centres unmarked) [Ia-31] | 2.63^[a] | 
OC(Cc1ccccc1OC(F)(F)F)(Cn1cnnn1)C1(Cl)CC1 (centres unmarked) [Ia-32] | 3.06^[a] | 
Cc1ccc(CC(O)(Cn2cnnn2)C2(F)CC2)cc1 (centres unmarked) [Ia-33] | 2.44^[a] | 
COc1ccc(CC(O)(Cn2cnnn2)C2(C)CC2)cc1 (centres unmarked) [Ia-34] | 2.35^[a] | 
COC(Cc1ccccc1Cl)(Cn1cnnn1)C1(Cl)CC1 (centres unmarked) [Ia-37] | 3.19^[a] | 
OC(Cc1ccc(F)cc1Cl)(Cn1cnnn1)C1(Cl)CC1 (centres unmarked) [Ia-39] | 2.90^[a] | 
OC(Cc1cccc(Cl)c1)(Cn1cnnn1)C1(Cl)CC1 (centres unmarked) [Ia-47] | 2.82^[a] | 
Cc1ccc(CC(O)(Cn2cnnn2)C2(Cl)CC2)cc1 (centres unmarked) [Ia-57] | 2.78^[a] | 
COc1ccc(CC(O)(Cn2cnnn2)C2(Cl)CC2)cc1 (centres unmarked) [Ia-58] | 2.40^[a] | 
OC(Cc1cncc(F)c1)(Cn1cnnn1)C1(Cl)CC1 (centres unmarked) [Ia-59] | 1.53^[a] | 
COc1cccc(CC(O)(Cn2cnnn2)C2(Cl)CC2)c1 (centres unmarked) [Ia-60] | 2.42^[a] | 
COc1cccc(CC(O)(Cn2cnnn2)C2(C)CC2)c1 (centres unmarked) [Ia-61] | 2.37^[a] | 
OC(Cc1cccc(Br)c1)(Cn1cnnn1)C1(Cl)CC1 (centres unmarked) [Ia-62] | 2.92^[a] | 
CC1(C(O)(Cc2cccc(Br)c2)Cn2cnnn2)CC1 (centres unmarked) [Ia-63] | 2.84^[a] | 
Cc1cccc(CC(O)(Cn2cnnn2)C2(Cl)CC2)c1 (centres unmarked) [Ia-64] | 2.78^[a] | 
Cc1cccc(CC(O)(Cn2cnnn2)C2(C)CC2)c1 (centres unmarked) [Ia-65] | 2.73^[a] | 
CC1(C(O)(Cc2ccccc2F)Cn2cnnn2)CC1 (centres unmarked) [Ia-68] | 2.45^[a] | 
OC(Cc1cccc(F)c1)(Cn1cnnn1)C1(Cl)CC1 (centres unmarked) [Ia-69] | 2.54^[a] | 

SMILES | LogP | chromatographic logP (method [a]: LC-UV, acidic range, 0.1% formic acid in water and acetonitrile as eluent)
COC(Cc1ccccc1Br)(Cn1cnnn1)C1(Cl)CC1 (centres unmarked) [Ia-70] | 3.23^[a] | 
OC(Cc1ccncc1Cl)(Cn1cnnn1)C1(Cl)CC1 (centres unmarked) [Ia-73] | 1.65^[a] | 
OC(Cc1cncc(Cl)c1)(Cn1cnnn1)C1(Cl)CC1 (centres unmarked) [Ia-74] | 1.86^[a] | 
OC(Cc1ccccc1C(F)(F)F)(Cn1cnnn1)C1(F)CC1 (centres unmarked) [Ia-76] | 2.71^[a] | 
C=C(c1cc(F)ccc1F)C(O)(Cn1cnnn1)C1(Cl)CC1 (centres unmarked) [Ia-en-01] | 2.54^[a] | 
C=C(c1ccccc1)C(O)(Cn1cnnn1)C1(Cl)CC1 (centres unmarked) [Ia-en-03] | 2.46^[a] | 
C=C(c1cccc(F)c1F)C(O)(Cn1cnnn1)C1(Cl)CC1 (centres unmarked) [Ia-en-08] | 2.57^[a] | 
C=C(c1ccccc1Cl)C(O)(Cn1cnnn1)C1(Cl)CC1 (centres unmarked) [Ia-en-09] | 2.71^[a] | 
C=C(c1cccc(Cl)c1F)C(O)(Cn1cnnn1)C1(Cl)CC1 (centres unmarked) [Ia-en-10] | 2.82^[a] | 
OC(Cc1cncc(Cl)c1)(Cn1ncnn1)C1(Cl)CC1 (centres unmarked) [Ib-01] | 2.13^[a] | 
OC(Cc1cccc(F)c1F)(Cn1ncnn1)C1(Cl)CC1 (centres unmarked) [Ib-03] | 2.82^[a] | 
OC(Cc1ccccc1Cl)(Cn1ncnn1)C1(Cl)CC1 (centres unmarked) [Ib-04, 2-(1-chlorocyclopropyl)-1-(2-chlorophenyl)-3-(tetrazol-2-yl)propan-2-ol] |  | 3.2
OC(Cc1cccc(Cl)c1F)(Cn1ncnn1)C1(Cl)CC1 (centres unmarked) [Ib-06] | 3.19^[a] | 
OC(Cc1c(F)cc(F)cc1F)(Cn1ncnn1)C1(Cl)CC1 (centres unmarked) [Ib-07] | 3.09^[a] | 
OC(Cc1ccc(Cl)cc1F)(Cn1ncnn1)C1(Cl)CC1 (centres unmarked) [Ib-08] | 3.37^[a] | 
OC(Cc1ccc(F)c(F)c1F)(Cn1ncnn1)C1(Cl)CC1 (centres unmarked) [Ib-10] | 3.11^[a] | 
OC(Cc1cc(F)cc(F)c1F)(Cn1ncnn1)C1(Cl)CC1 (centres unmarked) [Ib-11] | 3.06^[a] | 
OC(Cc1ccc(F)c(Cl)c1F)(Cn1ncnn1)C1(Cl)CC1 (centres unmarked) [Ib-12] | 3.37^[a] | 
COc1ccc(CC(O)(Cn2ncnn2)C2(Cl)CC2)c(F)c1F (centres unmarked) [Ib-13] | 2.94^[a] | 
COc1c(F)ccc(CC(O)(Cn2ncnn2)C2(Cl)CC2)c1F (centres unmarked) [Ib-14] | 3.00^[a] | 
COc1cc(F)c(CC(O)(Cn2ncnn2)C2(Cl)CC2)c(F)c1 (centres unmarked) [Ib-15] | 3.11^[a] | 

Now from value to compound, other results behind:

LogP | SMILES | chromatographic logP (method [a]: LC-UV, acidic range, 0.1% formic acid in water and acetonitrile as eluent)
2.72^[a] | OC(Cc1cccc(Cl)c1F)(Cn1cnnn1)C1(Cl)CC1 (centres unmarked) [Ia-02] | 
2.46^[a] | OC(Cc1cccc(F)c1F)(Cn1cnnn1)C1(Cl)CC1 (centres unmarked) [Ia-06] | 
2.52^[a] | OC(Cc1c(F)cccc1F)(Cn1cnnn1)C1(Cl)CC1 (centres unmarked) [Ia-13] | 
2.86^[a] | OC(Cc1cc(Cl)ccc1F)(Cn1cnnn1)C1(Cl)CC1 (centres unmarked) [Ia-29] | 
2.64^[a] | OC(Cc1c(F)cc(F)cc1F)(Cn1cnnn1)C1(Cl)CC1 (centres unmarked) [Ia-35] | 
2.90^[a] | Cc1ccc(F)c(CC(O)(Cn2cnnn2)C2(Cl)CC2)c1F (centres unmarked) [Ia-36] | 
2.94^[a] | OC(Cc1ccc(F)c(Cl)c1F)(Cn1cnnn1)C1(Cl)CC1 (centres unmarked) [Ia-38] | 
2.90^[a] | OC(Cc1ccc(Cl)cc1F)(Cn1cnnn1)C1(Cl)CC1 (centres unmarked) [Ia-40] | 
2.92^[a] | OC(Cc1cccc(Br)c1F)(Cn1cnnn1)C1(Cl)CC1 (centres unmarked) [Ia-41] | 
2.52^[a] | OC(Cc1cc(F)ccc1F)(Cn1cnnn1)C1(Cl)CC1 (centres unmarked) [Ia-42] | 
2.66^[a] | OC(Cc1cc(F)cc(F)c1F)(Cn1cnnn1)C1(Cl)CC1 (centres unmarked) [Ia-43] | 
2.71^[a] | OC(Cc1ccc(F)c(F)c1F)(Cn1cnnn1)C1(Cl)CC1 (centres unmarked) [Ia-44] | 
3.23^[a] | Cc1ccc(F)c(CC(O)(Cn2cnnn2)C2(Cl)CC2)c1Cl (centres unmarked) [Ia-45] | 
2.51^[a] | COc1ccc(F)c(CC(O)(Cn2cnnn2)C2(Cl)CC2)c1F (centres unmarked) [Ia-46] | 
2.59^[a] | COc1ccc(CC(O)(Cn2cnnn2)C2(Cl)CC2)c(F)c1F (centres unmarked) [Ia-48] | 
2.69^[a] | COc1cc(F)c(CC(O)(Cn2cnnn2)C2(Cl)CC2)c(F)c1 (centres unmarked) [Ia-49] | 
2.62^[a] | COc1c(F)ccc(CC(O)(Cn2cnnn2)C2(Cl)CC2)c1F (centres unmarked) [Ia-50] | 
2.66^[a] | OC(Cc1cc(F)c(F)cc1F)(Cn1cnnn1)C1(Cl)CC1 (centres unmarked) [Ia-51] | 
2.90^[a] | OC(Cc1ccc(F)c(Cl)c1)(Cn1cnnn1)C1(Cl)CC1 (centres unmarked) [Ia-52] | 
2.57^[a] | OC(Cc1ccc(F)cc1F)(Cn1cnnn1)C1(Cl)CC1 (centres unmarked) [Ia-53] | 
2.60^[a] | OC(Cc1c(F)ccc(F)c1F)(Cn1cnnn1)C1(Cl)CC1 (centres unmarked) [Ia-54] | 
2.92^[a] | Cc1ccc(CC(O)(Cn2cnnn2)C2(Cl)CC2)c(F)c1F (centres unmarked) [Ia-55] | 
2.64^[a] | OC(Cc1ccc(F)c(F)c1)(Cn1cnnn1)C1(Cl)CC1 (centres unmarked) [Ia-56] | 
2.77^[a] | Cc1ccccc1CC(O)(Cn1cnnn1)C1(Cl)CC1 (centres unmarked) [Ia-66] | 
3.23^[a] | OC(Cc1ccc(Br)cc1F)(Cn1cnnn1)C1(Cl)CC1 (centres unmarked) [Ia-67] | 
3.04^[a] | OC(Cc1cccc(C(F)(F)F)c1F)(Cn1cnnn1)C1(Cl)CC1 (centres unmarked) [Ia-71] | 
2.90^[a] | OC(Cc1c(F)cccc1Cl)(Cn1cnnn1)C1(Cl)CC1 (centres unmarked) [Ia-72] | 
2.98^[a] | OC(Cc1c(F)cc(Cl)cc1F)(Cn1cnnn1)C1(Cl)CC1 (centres unmarked) [Ia-75] | 
3.37^[a] | Cc1ccc(F)c(CC(O)(Cn2ncnn2)C2(Cl)CC2)c1F (centres unmarked) [Ib-09] | 
